Source: patent publication US20220233502A1, “COMPOSITION FOR PREVENTING OR TREATING ASTHMA, RHINITIS OR CONJUNCTIVITIS, COMPRISING N-ACYL AMINO ACID AS ACTIVE INGREDIENT” (STEMDR INC., priority 2019, published 2022)
“Also recorded” adds a separate entry of the source.

What was measured:
Type in all cases: in vivo, BALB/c mice
[1] = test system: asthma-induced mice (lung tissue); assay: H&E staining of lung tissue, degree of inflammation; details: OVA asthma mice; oral administration for a week; vs OVA-challenged group; FIG. 1
Procedure: (§1) Specific pathogen-free BALB/c mice (6-week-old, male) were purchased from Doul Biotech (Osan, Korea). Experiment was started when the mice were 7- to 10-week old. The mice were housed in a laminar flow cabinet and were given water and feed ad libitum.
(§2) The mice were sensitized by intraperitoneally injecting 0.02 mg of ovalbumin (OVA) and alum (1 mg) (Sigma-Aldrich) as an immunologic adjuvant twice on days 0 and 14. For 4 days from day 28, the mice were placed in a plastic nebulizer container of a regular size and were made to inhale OVA in the form of an aerosol by spraying 5% OVA for 30 minutes (airway challenge).
(§3) For histological assay, tissues taken out from the lung were fixed with formalin and embedded in paraffin. The embedded tissue was sliced to 4-μm thickness and subjected to 1) hematoxylin and eosin (H&E) staining for investigation of the degree of inflammation and 2) Masson's trichrome staining for investigation of the degree of pulmonary fibrosis.
Lung tissue was stained with H&E after oral administration of the drug for a week.

IL-4 = assay: Th2 cytokine IL-4 in bronchial wash (ELISA); details: OVA asthma mice; 3.5 μmol/kg oral once a day for 7 days from day 25; FIG. 3
Procedure: as §1, §2
(§4) The concentration of several cytokines (TNF-α, IL-4, IL-5, IL-13) in bronchial wash was measured using an ELISA kit (R&D Systems, Minneapolis, Minn., USA).
(§5) Th2 cytokines, IL-4, IL-5 and IL-13, are known to be involved in airway inflammation, bronchial hypersensitivity and IgE antibody production mediated by eosinophils. 3.5 μmol/kg N-acetyl-L-alanine, N-oleoyl-L-alanine, N-acetyl-L-tryptophan or N-oleoyl-L-tryptophan dissolved in 10 mL of phosphate-buffered saline was orally administered once a day, for 7 days from day 25 after the induction of asthma, and the cytokines were measured.

[2] = test system: asthma-induced mice (lung tissue); assay: Masson's trichrome staining of lung tissue, degree of fibrosis around the airway; details: OVA asthma mice; oral administration for a week; vs OVA-challenged group; FIG. 2
Procedure: as §1, §2, §3
Lung tissue was stained with Masson's trichrome after oral administration of the drug for a week.

rhinitis-induced mice = assay: OVA-induced allergic rhinitis, nasal rubbing and sneezing; details: 10 μL of 10 μM intranasally; for number of nasal rubbing: counted for 15 minutes on day 27, FIG. 6A; for number of sneezing: counted for 15 minutes on day 27, FIG. 6B
Procedure: as §1
The mice were sensitized by intraperitoneally injecting 0.02 mg of ovalbumin (OVA) and alum (1 mg) (Sigma-Aldrich) as an immunologic adjuvant twice on days 0 and 14. For 7 days from day 21, the mice were topically stimulated by injecting 10 μL of a solution of 100 μg of OVA dissolved in 20 μL of phosphate-buffered saline into both nasal cavities, once a day. After the final injection of OVA (day 27), symptom score was recorded by summing the numbers of nasal rubbing and sneezing. The symptom score was recorded for 15 minutes, and the result was compared between the groups.
Ovalbumin (OVA) of Preparation Example 3 was used as an antigen to induce allergic rhinitis. After OVA challenging from day 21 to day 26, 10 μL of each of N-acetyl-L-alanine, N-oleoyl-L-alanine, N-acetyl-L-tryptophan and N-oleoyl-L-tryptophan dissolved in phosphate-buffered saline to 10 μM was intranasally administered 12 hours later. After the final injection of OVA (day 27), symptom score was recorded by summing the numbers of nasal rubbing and sneezing. The symptom score was recorded for 15 minutes, and the result was compared between the groups.

IL-5 = assay: Th2 cytokine IL-5 in bronchial wash (ELISA); details: OVA asthma mice; 3.5 μmol/kg oral once a day for 7 days from day 25; FIG. 4
Procedure: as §1, §2, §4, §5

[3] = test system: conjunctivitis-induced mice; assay: OVA-induced conjunctivitis, clinical grading of conjunctival edema and flare; details: 10 μL of 100 μM intraocularly 30 minutes and 12 hours after challenge, scale 0 to 4+, FIG. 7
Procedure: as §1
The mice were sensitized by intraperitoneally injecting 0.02 mg of ovalbumin (OVA) and alum (1.5 mg) (Sigma-Aldrich) as an immunologic adjuvant twice on days 0 and 7. For 12 days from day 14, conjunctivitis was induced by injecting 10 μL of a solution of 100 μg of OVA dissolved in 20 μL of phosphate-buffered saline into each eye, once a day.
24 hours after the final injection of OVA (day 25), the clinical grading of conjunctival edema and flare (redness) was assessed using a portable slit lamp (Carl Zeiss, Oberkochen, Germany). The assessment was performed in a blinded fashion 2 hours after OVA injection. Each clinical parameter was scored on a scale of 0 to 4+(0 absent, 1+minimal, 2+mild, 3+moderate, 4+severe) as described in Merayo-Lloves, J., Calonge, M, and Foster, C. S. 1995. Experimental model of allergic conjunctivitis to ragweed in guinea pig. Curr. Eye Res. 14: 487-494. A negative control group was given no treatment.
Ovalbumin of Preparation Example 4 was used as an antigen to induce conjunctivitis. After challenging 100 μg of ovalbumin into the eye from day 15 to 26, 10 μL of each of N-acetyl-L-alanine, N-oleoyl-L-alanine, N-acetyl-L-tryptophan and N-oleoyl-L-tryptophan dissolved in phosphate-buffered saline to 100 μM was intraocularly administered 30 minutes and 12 hours later. On day 26, the clinical grading of conjunctival edema and flare (redness) was assessed using a portable slit lamp (Carl Zeiss, Oberkochen, Germany).

[4] = test system: asthma-induced mice (inflammatory cells in the airway); assay: Inflammatory cells in bronchoalveolar lavage fluid of asthma-induced mice; details: OVA asthma mice; for inflow of eosinophils into the airway / WBC, bronchoalveolar lavage fluid: 3.5 μmol/kg oral once a day for 7 days from day 25; for inflow of eosinophils into the airway: result in words; for WBC Differential Counting (%) EOS (eosinophils) / WBC Differential Counting (%) MAC (macrophages) / WBC Differential Counting (%) MONO (monocytes) / WBC Differential Counting (%) NEU (neutrophils) / WBC Differential Counting (k/uL) EOS (eosinophils) / WBC Differential Counting (k/uL) MAC (macrophages) / WBC Differential Counting (k/uL) MONO (monocytes) / WBC Differential Counting (k/uL) NEU (neutrophils) / WBC, bronchoalveolar lavage fluid: mean, N=8; for WBC Differential Counting (%) EOS (eosinophils) / WBC Differential Counting (%) MAC (macrophages) / WBC Differential Counting (%) MONO (monocytes) / WBC Differential Counting (%) NEU (neutrophils) / WBC Differential Counting (k/uL) EOS (eosinophils) / WBC Differential Counting (k/uL) MAC (macrophages) / WBC Differential Counting (k/uL) MONO (monocytes) / WBC Differential Counting (k/uL) NEU (neutrophils): BAL fluid, 3.5 μmol/kg oral once a day for 7 days
Procedure: Specific pathogen-free BALB/c mice (6-week-old, male) were purchased from Doul Biotech (Osan, Korea). Experiment was started when the mice were 7- to 10-week old. The mice were housed in a laminar flow cabinet and were given water and feed ad libitum. The mice were sensitized by intraperitoneally injecting 0.02 mg of ovalbumin (OVA) and alum (1 mg) (Sigma-Aldrich) as an immunologic adjuvant twice on days 0 and 14. For 4 days from day 28, the mice were placed in a plastic nebulizer container of a regular size and were made to inhale OVA in the form of an aerosol by spraying 5% OVA for 30 minutes (airway challenge). After anesthetizing the mouse and inserting a tube into the bronchus, the bronchus was washed with a buffer and cells were obtained therefrom. The cells were centrifuged, suspended at 1×10^4 cells/100 μL, and fixed by centrifuging with a cytospin. Then, the number of eosinophils, monocytes, neutrophils and macrophages were measured by staining with Diff-Quik. Neutrophils, macrophages, monocytes and eosinophils were observed as inflammatory cells in the airway. Each of N-acetyl-L-alanine, N-oleoyl-L-alanine, N-acetyl-L-tryptophan and N-oleoyl-L-tryptophan was dissolved in 10 mL of phosphate-buffered saline to 3.5 μmol/kg and was orally administered for 7 days from day 25, once a day.

IL-13 = assay: Th2 cytokine IL-13 in bronchial wash (ELISA); details: OVA asthma mice; 3.5 μmol/kg oral once a day for 7 days from day 25; FIG. 5
Procedure: as §1, §2, §4, §5

| SMILES | inflammation around the airway, H&E staining of lung tissue [1] | IL-4 secretion in airway (IL-4) | fibrosis around the airway, Masson's trichrome staining of lung tissue [2] | number of nasal rubbing (rhinitis-induced mice) | number of sneezing (rhinitis-induced mice) | IL-5 secretion in airway (IL-5) | clinical grade of conjunctivitis (conjunctival edema and flare) [3] | inflow of eosinophils into the airway [4] | WBC Differential Counting (%) EOS (eosinophils) [4] | WBC Differential Counting (%) MAC (macrophages) [4] | WBC Differential Counting (%) MONO (monocytes) [4] | WBC Differential Counting (%) NEU (neutrophils) [4] | WBC Differential Counting (k/uL) EOS (eosinophils) [4] | WBC Differential Counting (k/uL) MAC (macrophages) [4] | WBC Differential Counting (k/uL) MONO (monocytes) [4] | WBC Differential Counting (k/uL) NEU (neutrophils) [4] | WBC, bronchoalveolar lavage fluid [4] | IL-13 secretion in airway (IL-13) |
| --- | --- | --- | --- | --- | --- | --- | --- | --- | --- | --- | --- | --- | --- | --- | --- | --- | --- | --- |
| CC(=O)N[C@@H](Cc1c[nH]c2ccccc12)C(=O)O [NAT, N-acetyl-L-tryptophan] | remarkably inhibited inflammation | significantly inhibited | inhibited fibrosis | remarkably decreased | remarkably decreased | significantly inhibited | remarkably increased clinical grades | significantly inhibited | 20.1% | 71.8% | 3.9% | 4.1% | 0.10 k/uL | 0.33 k/uL | 0.02 k/uL | 0.02 k/uL | 0.47 ×10^2 cells/μL | significantly inhibited |
| CC(=O)N[C@@H](C)C(=O)O [NAA, N-acetyl-L-alanine] | remarkably inhibited inflammation | significantly inhibited | inhibited fibrosis | remarkably decreased | remarkably decreased | significantly inhibited | remarkably increased clinical grades | significantly inhibited | 10.1% | 81.8% | 3.3% | 4.9% | 0.04 k/uL | 0.32 k/uL | 0.01 k/uL | 0.02 k/uL | 0.39 ×10^2 cells/μL | significantly inhibited |
| CCCCCCCC/C=C\CCCCCCCC(=O)N[C@@H](C)C(=O)O [NOA, N-oleoyl-L-alanine] | remarkably inhibited inflammation; also recorded: highest inhibition of inflammation | significantly inhibited | inhibited fibrosis; also recorded: highest inhibition | remarkably decreased | remarkably decreased | significantly inhibited | remarkably increased clinical grades | significantly inhibited | 3.4% | 87.3% | 3.8% | 5.5% | 0.01 k/uL | 0.34 k/uL | 0.01 k/uL | 0.02 k/uL | 0.38 ×10^2 cells/μL | significantly inhibited |
| CCCCCCCC/C=C\CCCCCCCC(=O)N[C@@H](Cc1c[nH]c2ccccc12)C(=O)O [NOT, N-oleoyl-L-tryptophan] | remarkably inhibited inflammation | significantly inhibited | inhibited fibrosis | remarkably decreased | remarkably decreased | significantly inhibited | remarkably increased clinical grades | significantly inhibited | 17.0% | 74.3% | 3.6% | 5.1% | 0.07 k/uL | 0.32 k/uL | 0.01 k/uL | 0.02 k/uL | 0.43 ×10^2 cells/μL | significantly inhibited |
